How the values were obtained:
[1] = molecular target: T1, PPARα (Homo sapiens, UniProt Q07869); experiment: Specificity compared with PPARα
T1 sequence (Q07869 1-468): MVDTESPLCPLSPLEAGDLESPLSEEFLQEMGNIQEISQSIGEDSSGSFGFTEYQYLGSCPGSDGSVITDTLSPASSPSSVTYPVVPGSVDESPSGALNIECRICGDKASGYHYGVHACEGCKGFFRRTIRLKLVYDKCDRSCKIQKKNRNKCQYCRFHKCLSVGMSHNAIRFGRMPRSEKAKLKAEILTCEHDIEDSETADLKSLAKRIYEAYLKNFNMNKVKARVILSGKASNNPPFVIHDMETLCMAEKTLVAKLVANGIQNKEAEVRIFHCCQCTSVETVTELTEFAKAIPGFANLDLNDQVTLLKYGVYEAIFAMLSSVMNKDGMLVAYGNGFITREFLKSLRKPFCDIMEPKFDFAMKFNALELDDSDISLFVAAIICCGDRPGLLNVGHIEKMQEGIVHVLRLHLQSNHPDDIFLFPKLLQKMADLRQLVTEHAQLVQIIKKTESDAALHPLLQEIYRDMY
Text: It is specific (>600-fold and>2500-fold compared with PPARα and peroxisome proliferator-activated receptor-γreceptors). PPARδ activation stimulates fatty acid oxidation and utilization, improves plasma lipid and lipoprotein metabolism, glucose utilization, and mitochondrial respiration, and preserves stem cell homeostasis.

[2] = system: subjects with diagnosed alcoholic liver disease (alcoholic fatty liver); experiment: Clinical (oral), subjects with alcoholic fatty liver; format: in vivo, human; settings: oral 2-100 mg/day for 6 months
Experimental: Subjects are permitted their usual other medications (e.g. antidiabetic medications such as metformin or […]) but not glitazones, PPAR agonists, OCA, or similar medications. […] At each visit, after a 12-hour fast, blood is drawn and urine collected; and a standard metabolic panel, complete blood count, and standard urinalysis are performed. Blood is analyzed for bilirubin, creatinine, prothrombin time (International Normalized Ratio—INR), TGs, and liver transaminases. The subjects also maintain health diaries, which are reviewed at each visit.

[3] = system: subjects with diagnosed alcoholic liver disease (acute alcoholic hepatitis); experiment: Clinical (intravenous), subjects with acute alcoholic hepatitis; format: in vivo, human; settings: intravenous 2-100 mg/day for up to 30 days
Experimental: At each assessment blood is drawn; and a standard metabolic panel and complete blood count are performed. Blood is analyzed for bilirubin, creatinine, prothrombin time (International Normalized Ratio—INR), TGs, liver transaminases, high sensitivity C-reactive protein (hsCRP), interleukin-18, and TNF-α.

[4] = system: atherogenic diet-fed obese diabetic (Alms1 mutant (foz/foz)) mice; settings: foz/foz mice on atherogenic diet; cited from earlier work
[5] = system: wild-type female C57BL/6 mice; experiment: Lieber-DeCarli ethanol diet mouse model of alcoholic liver disease; format: in vivo; settings: for liver histology, hematoxylin and eosin (H+E): formalin-fixed liver sections; for hepatic lipid accumulation, oil red staining: frozen liver sections; for ALT: plasma; for ALT / Total bile acids / Hepatic TGs / Plasma LPS / FA (fecal albumin): mean (SEM); for Total bile acids: LC-MS; for FA (fecal albumin): feces at 7.5 weeks
Text: Age-matched wild-type female C57BL/6 mice (Charles River, Wilmington, Mass.), 8-9 weeks old at the initiation of the study, were used.
The Lieber-DeCarli ethanol diet was originally developed by Charles Lieber and Leonore DeCarli in 1963. This diet allows for the prolonged exposure of ethanol in a rodent model and allows for modification to calories provided by ethanol. […] The caloric intake from ethanol was 0% on day 1, 10% on days 2 and 3, 20% on days 4 and 5, 30% from day 6 until the end of 6 weeks, and 36% for the last 2 weeks, for a total in-life time of eight weeks. The ethanol-fed mice also received one bolus dose of 33% v/v ethanol at 5 g/Kg on the last in-life day. The control diet contained an isocaloric substitution of isomaltose for the ethanol. […] In the prevention portions of the study, including with the control diet, seladelpar was added throughout the entire study period; in the intervention portion of the study, seladelpar was added only for the fifth through eighth weeks. Fresh feces were collected at 7.5 weeks. All mice were sacrificed after eight weeks; the ethanol-fed mice eight hours after the ethanol bolus. At sacrifice, body and liver weight were recorded; and blood/plasma, liver, gallbladder, small and large intestine (wall and contents) and cecum were harvested. Analyses included plasma ALT—to measure […]; hepatic TGs; plasma lipopolysaccharides (LPS)—to measure the extent of bacterial leakage from the intestine into the blood; fecal albumin (FA)—to measure the extent of albumin leakage from the blood into the intestine (feces); and total bile acids, measured by liquid chromatography-mass spectrometry (LC-MS) generally according to the method described in Hartmann et al., “Modulation of the Intestinal Bile Acid/Farnesoid X Receptor/Fibroblast Growth Factor 15 Axis Improves Alcoholic Liver Disease in Mice”, Hepatology, 67(6), 2150-2166 (2018).
The study results are given in the table below: standard errors of the means are in parentheses, n denotes the number of mice measured, and ANOVA denotes the significance value of an ANOVA analysis between groups 3, 4, and 5:
Formalin-fixed liver sections were stained for histological examination with hematoxylin and eosin (H+E).
Frozen liver sections were cut and stained with oil red 0 for hepatic lipid accumulation analysis.

[6] = alcohol diet (group 3 vs groups 4 and 5, prevention and intervention)
[7] = alcohol diet, untreated group 3 vs seladelpar groups 4 and 5, ANOVA <0.001
[8] = group 2: control diet with seladelpar prevention, 10 mg/Kg/day oral, 8 weeks

Structure (SMILES): CCO[C@H](COc1ccc(C(F)(F)F)cc1)CSc1ccc(OCC(=O)O)c(C)c1 [seladelpar, [4-({(2R)-2-ethoxy-3-[4-(trifluoromethyl)phenoxy]propyl}sulfanyl)-2-methylphenoxy]acetic acid]
- specificity for PPARδ compared with PPARα [1]: > 600 fold
- improvement in disease (reductions in MRI-PDFF, TGs, liver transaminases) [2]: dose-related improvement
- improvement in disease (reduction in liver transaminases, hsCRP, interleukin-18, TNF-α, Maddrey's discriminant function, MELD score) [3]: dose-related improvement
- NASH pathology [4]: improves NASH pathology (reducing hepatic steatosis and inflammation, and improving fibrosis)
- liver histology, hematoxylin and eosin (H+E) [5, 6]: significant reduction of steatosis and restoration of a more normal architecture
- hepatic lipid accumulation, oil red staining [5, 6]: significant reduction of stainable lipid droplets
- change in serum ALT ([5]; alcohol diet, untreated group 3 vs seladelpar groups 4 and 5 (prevention and intervention), ANOVA <0.001): significant reductions (improvements)
- change in serum LPS ([5]; alcohol diet, untreated group 3 vs seladelpar groups 4 and 5, ANOVA 0.034): significant reductions (improvements)
- change in hepatic TGs [5, 7]: significant reductions (improvements)
- change in total bile acids [5, 7]: significant reductions (improvements)
- liver histology, hematoxylin and eosin (H+E) ([5]; control diet (groups 1 vs 2)): no significant change
- hepatic lipid accumulation, oil red staining ([5]; control diet (groups 1 vs 2)): no significant change
- effect on ALT, hepatic TGs, LPS, fecal albumin and total bile acids ([5]; control diet groups, seladelpar prevention (group 2 vs 1)): does not significantly affect
- ALT ([5]; group 2: control diet with seladelpar prevention, 10 mg/Kg/day oral in diet for 8 weeks): 20.8 (3.5) U/L
- Total bile acids [5, 8]: 14.2 (0.6) μmol/100 g body weight
- Hepatic TGs [5, 8]: 18.9 (1.8) mg/g
- Plasma LPS [5, 8]: 787 (108) ng/mL
- FA (fecal albumin) ([5]; group 2: control diet with seladelpar prevention, 10 mg/Kg/day oral): 95 (12) ng/mg
- ALT ([5]; group 4: ethanol diet with seladelpar prevention, 10 mg/Kg/day oral in diet for 8 weeks, untreated ethanol group 3: 83.3 (16.7)): 37.8 (4.1) U/L
- Total bile acids ([5]; group 4: ethanol diet with seladelpar prevention, 10 mg/Kg/day oral, 8 weeks, group 3: 23.7 (1.6)): 16.5 (1.1) μmol/100 g body weight
- Hepatic TGs ([5]; group 4: ethanol diet with seladelpar prevention, 10 mg/Kg/day oral, 8 weeks, group 3: 29.6 (2.0)): 21.8 (1.3) mg/g
- Plasma LPS ([5]; group 4: ethanol diet with seladelpar prevention, 10 mg/Kg/day oral, 8 weeks, group 3: 1064 (204)): 723 (66) ng/mL
- FA (fecal albumin) ([5]; group 4: ethanol diet with seladelpar prevention, 10 mg/Kg/day oral, group 3: 135 (15)): 98 (8) ng/mg
- FA (fecal albumin) ([5]; group 5: ethanol diet with seladelpar intervention, 10 mg/Kg/day oral from week 5, group 3: 135 (15)): 112 (9) ng/mg
- ALT ([5]; group 5: ethanol diet with seladelpar intervention, 10 mg/Kg/day oral in diet, weeks 5-8, untreated ethanol group 3: 83.3 (16.7)): 30.9 (4.1) U/L
- Total bile acids ([5]; group 5: ethanol diet with seladelpar intervention, 10 mg/Kg/day oral, weeks 5-8, group 3: 23.7 (1.6)): 16.0 (1.1) μmol/100 g body weight
- Hepatic TGs ([5]; group 5: ethanol diet with seladelpar intervention, 10 mg/Kg/day oral, weeks 5-8, group 3: 29.6 (2.0)): 20.5 (1.3) mg/g
- Plasma LPS ([5]; group 5: ethanol diet with seladelpar intervention, 10 mg/Kg/day oral, weeks 5-8, group 3: 1064 (204)): 634 (59) ng/mL

Reference: patent publication US20210145774A1, “Treatment of alcoholic liver disease” (CymaBay Therapeutics, Inc., priority 2019, published 2021)
